pIC50: −log10 of the molar value.

For the first test, the target named is T1, c-kit (Homo sapiens, UniProt P10721).
T1 construct: MO7e (human megakaryocytic leukemia cell line) which had been arrested for 20 hr; endogenous in cells; host or cells: MO7e human megakaryocytic leukemia cell line
T1 sequence (P10721 26-976): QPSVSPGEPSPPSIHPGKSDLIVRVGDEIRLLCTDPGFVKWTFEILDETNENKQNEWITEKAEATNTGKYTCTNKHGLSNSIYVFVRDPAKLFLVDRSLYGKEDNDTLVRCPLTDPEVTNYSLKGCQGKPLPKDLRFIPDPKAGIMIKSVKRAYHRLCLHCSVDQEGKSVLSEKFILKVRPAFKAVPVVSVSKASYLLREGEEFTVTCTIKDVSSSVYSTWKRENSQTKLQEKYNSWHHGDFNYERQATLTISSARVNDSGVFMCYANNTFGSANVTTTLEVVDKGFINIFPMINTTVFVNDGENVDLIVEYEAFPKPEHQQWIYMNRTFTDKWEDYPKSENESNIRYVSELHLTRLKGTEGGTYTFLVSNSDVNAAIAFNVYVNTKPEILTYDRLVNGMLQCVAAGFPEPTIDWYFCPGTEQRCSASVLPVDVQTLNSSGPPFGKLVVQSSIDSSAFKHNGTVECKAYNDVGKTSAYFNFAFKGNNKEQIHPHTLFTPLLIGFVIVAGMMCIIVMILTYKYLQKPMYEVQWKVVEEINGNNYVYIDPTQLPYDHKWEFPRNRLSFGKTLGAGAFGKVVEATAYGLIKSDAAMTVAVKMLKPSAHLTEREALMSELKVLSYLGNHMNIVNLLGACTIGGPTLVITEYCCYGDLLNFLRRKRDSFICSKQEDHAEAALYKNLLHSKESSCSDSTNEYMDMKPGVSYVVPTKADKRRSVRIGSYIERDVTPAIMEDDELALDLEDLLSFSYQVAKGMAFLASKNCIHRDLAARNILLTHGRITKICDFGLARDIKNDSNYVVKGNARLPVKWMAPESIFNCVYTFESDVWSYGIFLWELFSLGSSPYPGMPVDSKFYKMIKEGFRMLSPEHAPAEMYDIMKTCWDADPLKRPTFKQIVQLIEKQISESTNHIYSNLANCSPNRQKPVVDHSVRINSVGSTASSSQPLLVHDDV
Nature of the test: Inhibitory activity against c-kit autophosphorylation (MO7e cells, h-SCF). In kind it is cell-based. Conditions: MO7e cells, 50 ng/ml h-SCF; read-out: c-kit IC50. The method, then: Inhibitory Activity Against c-kit Autophosphorylation
MO7e (human megakaryocytic leukemia cell line) which had been arrested for 20 hr was seeded into 96 well plates at an amount of 2×10^5 per well. A solution of a test compound in DMSO was added, and a reaction was then allowed to proceed for one hr. Thereafter, the cells were stimulated by 50 ng/ml of h-SCF for 5 min, followed by replacement with lysate buffer to solubilize the cells.
Next, the solubilized cell sap was transferred to a 96-well plate with an anti-phosphotyrosine antibody (PY-20) previously immobilized thereon, and a reaction was allowed to proceed. Thereafter, the cells were reacted with an anti-c-kit antibody (c-19, Santa Cruz) as a primary antibody and were labelled with GAR (anti-rabbit IgG, horseradish peroxidase, Amersham) as a secondary antibody. Color development was then carried out in a peroxidase color development kit (Sumitomo Bakelite Co., Ltd.), and the absorbance was measured at a wavelength of 450 nm.
A word on the pIC50: it is −log10 of the IC50, conventionally taken in molar units. With `COc1cc2nccc(Oc3ccc(NC(=O)NNc4ccccc4)c(F)c3)c2cc1OC` [Example 612, N-{4-[(6,7-Dimethoxy-4-quinolyl)oxy]-2-fluorophenyl}-N′-(phenylamino)urea], the negative-log IC50 (pIC50) was 6.76.

Still in this test, the particulars now being: MO7e cells, h-SCF 50 ng/ml; read-out: c-kit IC50.
As for “4-Methylbenzyl {2-chloro-4-[(6,7-dimethoxy-4-quinazolinyl)oxy]anilino}methanethioate [Example 111]”, the pIC50 is 6.12.
The same measure, in the same setting: in the case of “4-Methylbenzyl {4-[(6,7-dimethoxy-4-quinazolinyl)oxy]anilino}methanethioate [Example 110]” it was 6.96; in that of `COc1cc2nccc(Oc3ccc(NC(=O)SCc4ccc(C)cc4)cc3)c2cc1OC` [Example 107, 4-Methylbenzyl {4-[(6,7-dimethoxy-4-quinolyl)oxy]anilino}methanethioate], 6.43; in that of `COc1cc2nccc(Oc3ccc(NC(=O)SCc4ccc(C)cc4)c(C)c3C)c2cc1OC` [Example 108, 4-Methylbenzyl {4-[(6,7-dimethoxy-4-quinolyl)oxy]-2,3-dimethylanilino}methanethioate], 6.74.
The same measure, in the same setting: in the case of `COc1cc2nccc(Oc3cc(C)c(NC(=O)SCc4ccc(C)cc4)cc3C)c2cc1OC` [Example 109, 4-Methylbenzyl {4-[(6,7-dimethoxy-4-quinolyl)oxy]-2,5-dimethylanilino}methanethioate] it was 6.39.
Still for that read-out and setting: in the case of `COc1cc2nccc(Oc3ccc(NC(=O)Oc4ccccc4)cc3)c2cc1OC` [Example 216, Phenyl N-{4-[(6,7-dimethoxy-4-quinolyl)oxy]phenyl}carbamate] it was 7.72; in that of `COc1cc2nccc(Oc3ccc(NC(=O)Oc4ccccc4)c(C)c3C)c2cc1OC` [Example 217, Phenyl N-{4-[(6,7-dimethoxy-4-quinolyl)oxy]-2,3-dimethylphenyl}carbamate], 7.41; in that of `COc1cc2nccc(Oc3cc(C)c(NC(=O)OCc4ccccc4)cc3C)c2cc1OC` [Example 218, Benzyl N-{4-[(6,7-dimethoxy-4-quinolyl)oxy]-2,5-dimethylphenyl}carbamate], 6.91.
Regarding `COc1cc2nccc(Oc3ccc(NC(=O)OCc4ccccc4)c(C)c3C)c2cc1OC` [Example 219, Benzyl N-{4-[(6,7-dimethoxy-4-quinolyl)oxy]-2,3-dimethylphenyl}carbamate], the pIC50 was over 7.52.
For `COc1cc2ncnc(Oc3ccc(NC(=O)OCc4ccccc4)cc3)c2cc1OC` [Example 220, Benzyl N-{4-[(6,7-dimethoxy-4-quinazolinyl)oxy]phenyl}carbamate], the pIC50 is 7.11.
As for `COc1cc2nccc(Oc3cc(C)c(NC(=O)OC4CCCCC4)cc3C)c2cc1OC` [Example 221, Cyclohexyl N-{4-[(6,7-dimethoxy-4-quinolyl)oxy]-2,5-dimethylphenyl}carbamate], the pIC50 was 6.96.
As for `COc1cc2nccc(Oc3ccc(NC(=O)OC4CCCCC4)c(C)c3C)c2cc1OC` [Example 222, Cyclohexyl N-{4-[(6,7-dimethoxy-4-quinolyl)oxy]-2,3-dimethylphenyl}carbamate], the negative logarithm of the IC50 (pIC50) is 7.00.
On to `COc1cc2nccc(Oc3cc(C)c(NC(=O)Oc4ccccc4)cc3C)c2cc1OC` [Example 224, Phenyl N-{4-[(6,7-dimethoxy-4-quinolyl)oxy]-2,5-dimethylphenyl}carbamate], for which the negative-log IC50 (pIC50) is 6.83.
With `COc1cc2ncnc(Oc3ccc(NC(=O)OCc4ccccc4)c(Cl)c3)c2cc1OC` [Example 225, Benzyl N-{2-chloro-4-[(6,7-dimethoxy-4-quinazolinyl)oxy]phenyl}carbamate], the negative-log IC50 (pIC50) was 6.34.
As for `COc1cccc(COC(=O)Nc2ccc(Oc3ccnc4cc(OC)c(OC)cc34)cc2)c1` [Example 226, 3-Methoxybenzyl N-{4-[(6,7-dimethoxy-4-quinolyl)oxy]phenyl}carbamate], the negative logarithm of the IC50 (pIC50) is 7.14.
Still for that read-out and setting: in the case of `COc1cc2nccc(Oc3ccc(NC(=O)OCc4ccccc4Cl)cc3)c2cc1OC` [Example 227, 2-Chlorobenzyl N-{4-[(6,7-dimethoxy-4-quinolyl)oxy]phenyl}carbamate] it was 6.71; in that of `COc1cc2nccc(Oc3ccc(NC(=O)OCc4cccc(Cl)c4)cc3)c2cc1OC` [Example 228, 3-Chlorobenzyl N-{4-[(6,7-dimethoxy-4-quinolyl)oxy]phenyl}carbamate], 7.15.
On the same count and under the same terms, the figure for `COc1cc2nccc(Oc3ccc(NC(=O)OCc4ccc(Cl)cc4)cc3)c2cc1OC` [Example 229, 4-Chlorobenzyl N-{4-[(6,7-dimethoxy-4-quinolyl)oxy]phenyl}carbamate] is 7.33.
With `C=CCCCOC(=O)Nc1ccc(Oc2ccnc3cc(OC)c(OC)cc23)cc1` [Example 266, 4-Pentenyl N-{4-[(6,7-dimethoxy-4-quinolyl)oxy]phenyl}carbamate], the negative-log IC50 (pIC50) is 7.47.
On the same count and under the same terms, in the case of `C=CCCCOC(=O)Nc1cc(C)c(Oc2ccnc3cc(OC)c(OC)cc23)cc1C` [Example 267, 4-Pentenyl N-{4-[(6,7-dimethoxy-4-quinolyl)oxy]-2,5-dimethylphenyl}carbamate] it was 7.46; in that of `C=CCCCOC(=O)Nc1ccc(Oc2ccnc3cc(OC)c(OC)cc23)c(C)c1C` [Example 268, 4-Pentenyl N-{4-[(6,7-dimethoxy-4-quinolyl)oxy]-2,3-dimethylphenyl}carbamate], 7.47.
For `CCCCOC(=O)Nc1ccc(Oc2ncnc3cc(OC)c(OC)cc23)cc1Cl` [Example 345, Butyl N-{2-chloro-4-[(6,7-dimethoxy-4-quinazolinyl)oxy]phenyl}carbamate], the negative-log IC50 (pIC50) was 6.91.

The test is the same for the next values; noted with them: Mo7e, figure in parentheses in −( ); at 1000 nM.
Broadly, the inhibition is the percentage by which the read-out fell short of the control. `CCCCC(CCCC)OC(=O)Nc1ccc(Oc2ncnc3cc(OC)c(OC)cc23)cc1Cl` [Example 372, 1-Butylpentyl N-{2-chloro-4-[(6,7-dimethoxy-4-quinazolinyl)oxy]phenyl}carbamate]: the inhibition at 1 µM worked out at 14%.

The test is the same for the next values; noted with them: Mo7e, figure within parentheses in −( ) or >1000( ); at 1000 nM.
With `C#CCC(CC)OC(=O)Nc1ccc(Oc2ncnc3cc(OC)c(OC)cc23)cc1OC` (stereo not drawn) [Example 502, 1-Ethyl-3-butynyl N-{4-[(6,7-dimethoxy-4-quinazolinyl)oxy]-2-methoxyphenyl}carbamate], the inhibition at 1 µM was found to be 23%.
Same read-out and setting: the figure for `CCCCC(CCCC)OC(=O)Nc1ccc(Oc2ncnc3cc(OC)c(OC)cc23)cc1[N+](=O)[O-]` [Example 508, 1-Butylpentyl N-{4-[(6,7-dimethoxy-4-quinazolinyl)oxy]-2-nitrophenyl}carbamate] is 28%; for `CCN(CC)CCCNC(=S)Nc1ccc(Oc2ncnc3cc(OC)c(OC)cc23)cc1` [Example 531, N-{4-[(6,7-Dimethoxy-4-quinazolinyl)oxy]phenyl}-N′-(3-diethylaminopropyl)thiourea] it is 31%.
The same measure, in the same setting: the figure for `COc1cc2ncnc(Oc3ccc(NC(=S)NCCCN4CCN(C)CC4)cc3)c2cc1OC` [Example 536] is 7%; for `COc1cc2nccc(Oc3ccc(NC(=O)NN4CCCCC4)c(F)c3)c2cc1OC` [Example 613, N-{4-[(6,7-Dimethoxy-4-quinolyl)oxy]-2-fluorophenyl}-N′-(1-piperidinyl)urea] it is 29%.
Still for that read-out and setting: the figure for `COc1cc2ncnc(Oc3ccc(NC(=O)NCCN4CCCC4)cc3)c2cc1OC` [Example 621, N-{4-[(6,7-Dimethoxy-4-quinazolinyl)oxy]phenyl}-N′-(2-tetrahydro-1H-1-pyrrolylethyl)urea] is 30%.

These data come from patent publication US7135466B2 (Kirin Beer Kabushiki Kaisha, priority 1999, dated 2006).
